Data published in patent US20240199587A1, “HETEROCYCLIC COMPOUNDS” (Hoffmann-La Roche Inc., priority 2021, published 2024).

The molecules below were run against T1, MAGL (Homo sapiens, UniProt Q99685) (assay: 2-AG assay (MAGL inhibitory activity, hydrolysis of 2-arachidonoylglycerol to arachidonic acid followed by mass spectrometry)). Conditions: 8 μM 2-arachidonoylglycerol, 15 min pre-incubation, 30 min incubation at RT, RapidFire MS readout.
T1 sequence (Q99685 1-303): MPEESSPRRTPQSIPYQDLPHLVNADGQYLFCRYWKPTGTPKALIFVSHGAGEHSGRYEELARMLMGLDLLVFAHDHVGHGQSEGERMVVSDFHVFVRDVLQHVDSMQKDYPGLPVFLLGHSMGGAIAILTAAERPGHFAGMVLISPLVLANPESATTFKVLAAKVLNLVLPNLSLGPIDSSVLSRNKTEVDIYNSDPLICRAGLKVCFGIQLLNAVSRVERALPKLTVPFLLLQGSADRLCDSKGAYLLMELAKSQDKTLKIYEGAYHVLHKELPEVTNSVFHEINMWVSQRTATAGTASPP
Assay type: biochemical
Method in brief: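 Arachidonic acid released from 8 μM 2-arachidonoylglycerol was quantified by online SPE triple-quadrupole MS (negative ESI, 303.1→259.1), normalised to d8-arachidonic acid internal standard. Reaction ran 30 min at RT after 15 min RT compound pre-incubation with […] MAGL in TRIS/EDTA/Tween-20 buffer, 2.5% DMSO.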

Point of comparison: `CC(C)(C)c1nc(C23CC(C(=O)N4CC5(CC(n6cnc(C7CC7)n6)C5)C4)(C2)C3)no1` [Example 163, [3-(5-tert-butyl-1,2,4-oxadiazol-3-yl)-1-bicyclo[1.1.1]pentanyl]-[6-(3-cyclopropyl-1,2,4-triazol-1-yl)-2-azaspiro[3.3]heptan-2-yl]methanone], IC50 192 nM. Against it:
- CCc1ncn(C2CC3(C2)CN(C(=O)c2ccc(-c4noc(C(C)(C)C)n4)cc2)C3)n1 [Example 156, [4-(5-tert-butyl-1,2,4-oxadiazol-3-yl)phenyl]−[6-(3-ethyl-1,2,4-triazol-1-yl)-2-azaspiro[3.3]heptan-2-yl]methanone] — 5.7-fold lower, 33.9 nM
- CCc1cn(C2CC3(C2)CN(C(=O)c2ccc(-c4noc(C(C)(C)C)n4)cc2)C3)cn1 [Example 157, [4-(5-tert-butyl-1,2,4-oxadiazol-3-yl)phenyl]-[6-(4-ethylimidazol-1-yl)-2-azaspiro[3.3]heptan-2-yl]methanone] — 4.4-fold lower, 43.7 nM
- CC(C)(C)c1nc(-c2ccc(C(=O)N3CC4(CC(n5cnc(C(F)(F)F)c5)C4)C3)cc2)no1 [Example 158, [4-(5-tert-butyl-1,2,4-oxadiazol-3-yl)phenyl]-[6-[4-(trifluoromethyl)imidazol-1-yl]-2-azaspiro[3.3]heptan-2-yl]methanone] — 2.8-fold lower, 69.1 nM
- CC(C)(C)c1nc(-c2ccc(C(=O)N3CC4(CC(n5cnc(Cl)c5)C4)C3)cc2)no1 [Example 159, [4-(5-tert-butyl-1,2,4-oxadiazol-3-yl)phenyl]-[6-(4-chloroimidazol-1-yl)-2-azaspiro[3.3]heptan-2-yl]methanone] — 1.6-fold higher, 315 nM
- CC(C)(C)c1nc(-c2ccc(C(=O)N3CC4(CC(n5cnc(C#N)c5)C4)C3)cc2)no1 [Example 160, 1-[2-[4-(5-tert-butyl-1,2,4-oxadiazol-3-yl)benzoyl]-2-azaspiro[3.3]heptan-6-yl]imidazole-4-carbonitrile] — 5.3-fold higher, 1010 nM
- CC(C)(C)c1nc(C23CC(C(=O)N4CC5(CC(n6cnc(C7CC7)c6)C5)C4)(C2)C3)no1 [Example 162, [3-(5-tert-butyl-1,2,4-oxadiazol-3-yl)-1-bicyclo[1.1.1]pentanyl]-[6-(4-cyclopropylimidazol-1-yl)-2-azaspiro[3.3]heptan-2-yl]methanone] — 2.5-fold higher, 475 nM
- O=C(N1CC(c2cn(C3(C(F)(F)F)CC3)nn2)C1)N1CC2(CC(n3cnc(C4CC4)n3)C2)C1 [Example 164, [6-(3-cyclopropyl-1,2,4-triazol-1-yl)-2-azaspiro[3.3]heptan-2-yl]-[3-[1-[1-(trifluoromethyl)cyclo-propyl]triazol-4-yl]azetidin-1-yl]methanone] — 3-fold lower, 64.6 nM
- O=C(N1CC(n2cc(OCC(F)(F)F)cn2)C1)N1CC2(CC(n3cnc(C4CC4)n3)C2)C1 [Example 165, [6-(3-cyclopropyl-1,2,4-triazol-1-yl)-2-azaspiro[3.3]heptan-2-yl]-[3-[4-(2,2,2-trifluoroethoxy)pyrazol-1-yl]azetidin-1-yl]methanone] — 1.9-fold lower, 102 nM
- O=C(N1CC(c2nc(C3(C(F)(F)F)CC3)no2)C1)N1CC2(CC(n3cnc(C4CC4)n3)C2)C1 [Example 166, [6-(3-cyclopropyl-1,2,4-triazol-1-yl)-2-azaspiro[3.3]heptan-2-yl]-[3-[3-[1-(trifluoromethyl)cyclo-propyl]-1,2,4-oxadiazol-5-yl]azetidin-1-yl]methanone] — 2-fold lower, 97.9 nM
- O=C(N1CC(c2cn(C3(C(F)(F)F)COC3)nn2)C1)N1CC2(CC(n3cnc(C4CC4)n3)C2)C1 [Example 167, [6-(3-cyclopropyl-1,2,4-triazol-1-yl)-2-azaspiro[3.3]heptan-2-yl]-[3-[1-[3-(trifluoromethyl)oxetan-3-yl]triazol-4-yl]azetidin-1-yl]methanone] — 2.2-fold lower, 85.5 nM
- CC(C)(C)c1nnc(-c2ccc(C(=O)N3CC4(CC(n5cnc(Cl)n5)C4)C3)cc2)o1 [Example 168, [4-(5-tert-butyl-1,3,4-oxadiazol-2-yl)phenyl]-[6-(3-chloro-1,2,4-triazol-1-yl)-2-azaspiro[3.3]heptan-2-yl]methanone] — 7.8-fold higher, 1490 nM
- CC(C)(C)c1nnc(-c2ccc(C(=O)N3CC4(CC(n5ccc(C6CC6)n5)C4)C3)cc2)o1 [Example 169, [4-(5-tert-butyl-1,3,4-oxadiazol-2-yl)phenyl]-[6-(3-cyclopropylpyrazol-1-yl)-2-azaspiro[3.3]heptan-2-yl]methanone] — 3.4-fold higher, 659 nM
- CC(C)(C)n1cc(-c2ccc(C(=O)N3CC4(CC(n5cnc(Cl)n5)C4)C3)cc2)cn1 [Example 170, [4-(1-tert-butylpyrazol-4-yl)phenyl]-[6-(3-chloro-1,2,4-triazol-1-yl)-2-azaspiro[3.3]heptan-2-yl]methanone] — within 1.5-fold, 286 nM
- CC(C)(C)c1nc(-c2ccc(C(=O)N3CC4(CC(n5ccc(C6CC6)n5)C4)C3)cc2)no1 [Example 171, [4-(5-tert-butyl-1,2,4-oxadiazol-3-yl)phenyl]-[6-(3-cyclopropylpyrazol-1-yl)-2-azaspiro[3.3]heptan-2-yl]methanone] — 2-fold lower, 96.4 nM
- CC(C)(C)c1nc(-c2ccc(C(=O)N3CC4(CC(n5cnc(Cl)n5)C4)C3)cc2)no1 [Example 172, [4-(5-tert-butyl-1,2,4-oxadiazol-3-yl)phenyl]-[6-(3-chloro-1,2,4-triazol-1-yl)-2-azaspiro[3.3]heptan-2-yl]methanone] — within 1.5-fold, 170 nM
- O=C(C1CC(COCC2(C(F)(F)F)CC2)C1)N1CC2(CC(n3cnc(C4CC4)n3)C2)C1 (centres unmarked) [Example 173, [6-(3-cyclopropyl-1,2,4-triazol-1-yl)-2-azaspiro[3.3]heptan-2-yl]−[3-[[1-(trifluoromethyl)cyclopropyl]methoxymethyl]cyclobutyl]methanone] — 2.8-fold higher, 546 nM
- Cc1cc(C(=O)N2CC3(CC(n4cnc(Cl)n4)C3)C2)cnc1OCC1(C(F)(F)F)CC1 [Example 174, [6-(3-chloro-1,2,4-triazol-1-yl)-2-azaspiro[3.3]heptan-2-yl]-[5-methyl-6-[[1-(trifluoromethyl)cyclopropyl]methoxy]-3-pyridyl]methanone] — within 1.5-fold, 183 nM
- Cc1cc(C(=O)N2CC3(CC(n4cnc(Cl)n4)C3)C2)cnc1OC(C)(C)C(F)(F)F [Example 175, [6-(3-chloro-1,2,4-triazol-1-yl)-2-azaspiro[3.3]heptan-2-yl]-[5-methyl-6-(2,2,2-trifluoro-1,1-dimethyl-ethoxy)-3-pyridyl]methanone] — within 1.5-fold, 221 nM
- O=C(N1CC(OCc2ccc(C(F)(F)F)cc2)C1)N1CC2(CC(n3cnc(N4CCC4)n3)C2)C1 [Example 177, (6-(3-(azetidin-1-yl)-1H-1,2,4-triazol-1-yl)-2-azaspiro[3.3]heptan-2-yl)(3-((4-(trifluoromethyl)benzyl)oxy)azetidin-1-yl)methanone] — within 1.5-fold, 141 nM
- CC(C)(C)c1nc(-c2ccc(C(=O)N3CC4(C3)CC(O)(c3cnc(C5CC5)o3)C4)cc2)no1 [Example 179, [4-(5-tert-butyl-1,2,4-oxadiazol-3-yl)phenyl]−[6-(2-cyclopropyloxazol-5-yl)-6-hydroxy-2-azaspiro[3.3]heptan-2-yl]methanone] — 5.4-fold higher, 1030 nM
- CC(C)(C)c1nc(-c2ccc(C(=O)N3CC4(CC(n5nccc5C5CC5)C4)C3)cc2)no1 [Example 180, [4-(5-tert-butyl-1,2,4-oxadiazol-3-yl)phenyl]-[6-(5-cyclopropylpyrazol-1-yl)-2-azaspiro[3.3]heptan-2-yl]methanone] — 24-fold higher, 4690 nM
- CC(C)(C)n1cc(C2CN(C(=O)N3CC4(CC(n5cnc(C6CC6)n5)C4)C3)C2)cn1 [Example 181, [3-(1-tert-butylpyrazol-4-yl)azetidin-1-yl]−[6-(3-cyclopropyl-1,2,4-triazol-1-yl)-2-azaspiro[3.3]heptan-2-yl]methanone] — 24-fold higher, 4610 nM
- Cc1cc(C2CN(C(=O)N3CC4(CC(n5cnc(C6CC6)n5)C4)C3)C2)ccc1OC(F)(F)F [Example 182, [6-(3-cyclopropyl-1,2,4-triazol-1-yl)-2-azaspiro[3.3]heptan-2-yl]-[3-[3-methyl-4-(trifluoromethoxy)phenyl]azetidin-1-yl]methanone] — 13-fold higher, 2580 nM
- O=C(N1CC(Oc2ccc(C3CC3)cc2)C1)N1CC2(CC(n3cnc(C4CC4)n3)C2)C1 [Example 183, (6-(3-cyclopropyl-1H-1,2,4-triazol-1-yl)-2-azaspiro[3.3]heptan-2-yl)(3-(4-cyclopropylphenoxy)azetidin-1-yl)methanone] — 1900-fold lower, 0.1 nM
- O=C(N1CC2(CC(Cc3ccc(F)cc3F)C2)C1)N1CC2(CC(n3cnc(C4CCC4)n3)C2)C1 [Example 184, [6-(3-cyclobutyl-1,2,4-triazol-1-yl)-2-azaspiro[3.3]heptan-2-yl]-[6-[(2,4-difluorophenyl)methyl]-2-azaspiro[3.3]heptan-2-yl]methanone] — 1900-fold lower, 0.1 nM
- O=C(N1CC(Oc2nccc(C3CC3)c2Cl)C1)N1CC2(CC(n3cnc(C4CC4)n3)C2)C1 [Example 185, [3-[(3-chloro-4-cyclopropyl-2-pyridyl)oxy]azetidin-1-yl]-[6-(3-cyclopropyl-1,2,4-triazol-1-yl)-2-azaspiro[3.3]heptan-2-yl]methanone] — 1900-fold lower, 0.1 nM
- CCc1ncn(C2CC3(C2)CN(C(=O)N2CC4(CC(Cc5ccc(F)cc5F)C4)C2)C3)n1 [Example 186, [6-[(2,4-difluorophenyl)methyl]-2-azaspiro[3.3]heptan-2-yl]-[6-(3-ethyl-1,2,4-triazol-1-yl)-2-azaspiro[3.3]heptan-2-yl]methanone] — 1900-fold lower, 0.1 nM
- O=C(N1CC(Oc2ccc(C(F)(F)F)c(C3CC3)c2)C1)N1CC2(CC(n3cnc(C4CC4)n3)C2)C1 [Example 187, [6-(3-cyclopropyl-1,2,4-triazol-1-yl)-2-azaspiro[3.3]heptan-2-yl]-[3-[3-cyclopropyl-4-(trifluoromethyl)phenoxy]azetidin-1-yl]methanone] — 960-fold lower, 0.2 nM
